The source of these data is US12377194B2, “JAB1 inhibitory compositions for ossification and methods related thereto” (Emory University, priority 2011, dated 2025).

Test [1] relates to Mouse C2C12 cells. The experiment in a line: Alkaline phosphatase (ALP) assay, cell based screen of JAB1 blockers with BMP-2. The following applies: cell based assay (FIG. 1-4). Here is the method:
Mouse C2C12 cells and Dulbecco's modified Eagle's medium (DMEM) were purchased from ATCC (Manassas, VA). The non-heat inactivated fetal bovine serum (FBS) was purchased from HyClone Laboratories, Inc. (Logan, UT). The C2C12 cells at passages 4 to 7 were subcultured in T-75 cm2 flasks in DMEM supplemented with 10% FBS at 37° C. in 5% CO2 with humidification. When the flasks reached 80% confluence, the cells were trypsinized and seeded in triplicate at 200,000 cells/well in a 6-well plate for quantitative real-time RT-PCR and alkaline phosphatase (ALP) assays or at 50,000 cells/well in a 12-well plate for the dual-luciferase reporter assay.
The C2C12 cells were plated at 200,000 cells/well in 6-well plates and grown overnight in DMEM containing 10% FBS. On day 2, the culture medium was replaced with DMEM containing 2% FBS and the cells were treated with various concentrations of the JAB1-interacting compound for 24 hours. On day 3, the medium was replaced with fresh DMEM containing 2% FBS and the cells were treated with 50 ng/ml of BMP-2 for 72 hours. The cells were washed with phosphate-buffered saline (PBS) and lysed by addition of lysis buffer (10 mM Tris-HCl pH 8.0, 1 mM MgCl2 and 0.5% Triton X-100). The cell lysates were centrifuged for 5 minutes at 13,000×g. The supernatant was removed and the aliquots were assayed for ALP activity and protein amount. The ALP activity was measured in triplicate using an ALP assay kit (Sigma-Aldrich, St. Louis, MO) in microtiter plates. The protein amount was determined with Bio-Rad protein assay reagent (Bio-Rad, Hercules, CA) using bovine serum albumin (BSA) as a standard. The ALP activity (nmoles of p-nitrophenol per ml) was normalized to the protein amount (nmoles of p-nitrophenol per μg).

Test [2] deals with Harlan athymic rats. Put plainly: Collagen disc implantation with Jab1-blockers and BMP-2 in rat ectopic model. Details: Average (Xray score): scale not given here. The settings on record: 100 ul, chest implant, 4 weeks. The class given is in vivo. The source says:
Harlan athymic rats about 5-6 weeks of age were chest implanted with a collagen disc and doses of G8 and R13 in combination with BMP-2. After 4 weeks the rats were sacrificed and evaluated for bone growth.

Where [3] appears, read: compound dose 2 mM + BMP-2 1.5 ug.
[4] abbreviates: compound dose 4 mM + BMP-2 1.5 ug.
The mark [5] stands for this setting: compound dose 6 mM + BMP-2 1.5 ug.
Setting [6] is: compound dose 8 mM + BMP-2 1.5 ug.
Where [7] appears, read: compound dose 11 mM + BMP-2 1.5 ug.
[8] abbreviates: compound dose 15 mM + BMP-2 1.5 ug.
Setting [9] is: compound dose 19 mM + BMP-2 1.5 ug.

As to `COc1cc2nccc(Oc3ccc(Br)c(C)c3)c2cc1OC` [#SRJ-G8, 4-(4-bromo-3-methylphenoxy)-6,7-dimethoxyquinoline], the ALP activity entry in test [1] is reported as “improving ALP activity”. Also, the “Average (Xray score)” value turned out to be 3.5 in test [2] (setting [3]); 3.75 in test [2] (setting [4]); 3 in test [2] (setting [5]); 4 in test [2] (setting [6]); 1.25 in test [2] (setting [7]); 1.75 in test [2] (setting [8]). In addition, in test [2] (setting [9]), the “Average (Xray score)” value was 0.75. Besides, the “Results (bone made, n of 4)” value in test [2] (setting [3]) is “Bone made (4 of 4)”; in test [2] (setting [4]), “Bone made (4 of 4)”; in test [2] (setting [5]), “Bone made (3 of 4)”; in test [2] (setting [6]), “Bone made (4 of 4)”; in test [2] (setting [7]), “Bone made (1 of 4)”; in test [2] (setting [8]), “Bone made (2 of 4)”. Besides, the “Results (bone made, n of 4)” value in test [2] (setting [9]) was “Bone made (1 of 4)”.

For the compound `COc1cc(OC)c(C=C2C(=O)Nc3cc(Cl)ccc32)c(OC)c1` [#SRJ-R13, 6-chloro-3-(2,4,6-trimethoxybenzylidene)indolin-2-one], in test [1], the ALP activity result is on record as “improving ALP activity”. Moreover, the figures for the “Average (Xray score)” value in test [2] (setting [3]) and in test [2] (setting [4]) were 1.75 and 2.25, respectively. For the same compound, the “Results (bone made, n of 4)” value in test [2] (setting [3]) is reported as “Bone made (3 of 4)”; in test [2] (setting [4]), “Bone made (4 of 4)”; in test [2] (setting [5]) it was “No bone (0 of 4)”; in test [2] (setting [6]), “No bone (0 of 4)”; in test [2] (setting [7]) it was “No bone (0 of 4)”; in test [2] (setting [8]), “No bone (0 of 4)”. Also, the “Results (bone made, n of 4)” value in test [2] (setting [9]) is reported as “No bone (0 of 4)”.

For `COc1cc(Nc2nccc(Nc3ccc(F)cc3)n2)cc(OC)c1` [P5, N^2-(3,5-dimethoxyphenyl)-N^4-(4-fluorophenyl)pyrimidine-2,4-diamine], the ALP activity entry in test [1] is listed as “improving ALP activity”.
